Reference: article PMC9104013, “Role of Polyamine-Induced Dimerization of Antizyme in Its Cellular Functions” (International Journal of Molecular Sciences, 2022)

Key:
[1] = system: +1 frameshifting of eukaryotic OAZ1 mRNA; assay: Bicistronic β-galactosidase/firefly luciferase +1 frameshift reporter assay; format: cell-based, S. cerevisiae IS532/44d
Source text: For this purpose, the earlier developed frameshift reporter system, which includes quadruple S. cerevisiae mutant strain IS532/44d, unable to synthesize and degrade polyamines due to deletion of genes FMS1, SPE1, SPE2, and PAA1, and the plasmids pAC98T-OAZ1-FS and pAC98T-OAZ1-Cont were used. Each of these plasmids bears the reporter gene encoding β-galactosidase and firefly luciferase gene fused with the fragment of eukaryotic OAZ1 containing frameshift site. The plasmid pAC98T-OAZ1-FS contains native eukaryotic OAZ1 fragment, so the efficiency of luciferase synthesis and enzymatic activity depend on the +1 frameshift event. The plasmid pAC98T-OAZ1-Cont contains the eukaryotic OAZ1 fragment with […] replaced by TGG tryptophan codon that enables constitutive synthesis of both β-galactosidase and luciferase whose activity is taken as 100%. Bicistronic assays for frameshifting were performed as described earlier with the following modifications. Yeast transformants of IS532/44d strain were grown on agar plates with the synthetic media containing 0.67% (w/v) Yeast Nitrogen Base without amino acids (Sigma), 2% (w/v) glucose, 2% (w/v) agar, mixture of 19 amino acids without leucine (2 mg/mL each), and adenine (2 mg/mL) at 30 °C for 5–7 days. Then, colonies of yeast transformants were grown in the synthetic media lacking leucine and polyamines for two days. Yeast cultures were diluted to OD600 = 0.1 in 5 mL of synthetic media lacking leucine and supplemented with either Spd, 1-MeSpd, 2-MeSpd, or 3-MeSpd, each at final concentrations of 0.25, 0.5, 1, 2, and 4 mM. Yeast cultures were grown to log phase (OD600 = 0.8–1.4) at 30 °C and harvested by centrifugation, and cell pellets were washed three times with water. Cell pellets were resuspended in 500 μL of buffer containing 60 mM NaH2PO4, 40 mM Na2HPO4, 10 mM KCl, 1 mM MgSO4, 50 mM 2-mercaptoethanol, and 10% glycerol and lysed by vortexing with acid-washed glass beads (Sigma). The lysates were centrifuged (15,000× g, 10 min, 4 °C), and the supernatants were used for β-galactosidase and firefly luciferase reporter gene assays. β-Galactosidase activity was analyzed using ο-nitrophenyl-β-D-galactopyranoside (Sigma) as the substrate in accordance with published protocol. Activity of firefly luciferase was analyzed in 96-well plates using Luciferase Assay System (Promega). Frameshift frequencies were calculated as described.

[2] = system: 72-mer-2'-O-Me-oligoribonucleotide L-OM, containing the +1 frameshift site, hairpin and pseudoknot of the mOAZ1 mRNA; assay: RNA melting point (UV thermal denaturation); format: binding, mouse; details: for Tm: 1 μM L-OM, 50 mM Tris-HCl pH 7.5, 50 mM NaCl
Method: UV thermal denaturation data were obtained on a Hitachi U-2900 spectrophotometer equipped with a Peltier temperature controller. The concentration of model 72-mer-2′-O-Me-oligoribonucleotide L-OM, containing the +1 frameshift site, hairpin, and pseudoknot of the mOAZ1 mRNA was 1 µM. Samples were dissolved in 50 mM Tris-HCl, pH 7.5 and 50 mM NaCl buffer. Concentration of oligonucleotide was determined after quantitating the samples by UV absorbance at λ = 260 nm. Samples were heated to 90 °C for 10 min then cooled slowly to room temperature and stored at 5 °C for at least 18 h before the measurements were performed. Denaturation curves were acquired at 260 nm for the duplexes at a rate of 0.5 °C/min, within a range of 30–90 °C. The Tm values were determined from polynomial fitting of the observed curves and taken as the temperatures corresponding to half-dissociation of complex. The first derivative of absorption with respect to temperature, dA/dT, of the melting curve was computer-generated by the GraphPad Prism 7.0 software and used for the determining of Tm.

DU145 cells = assay: Intracellular polyamine and analogue concentrations in DU145 cells (HPLC); format: cell-based; details: 4 h, 100 µM analogue, 1 mM AG
Method: The DU145 cell line was obtained from American Type Culture Collection, Manassas, VA, USA. OAZ1-overexpressing DU145 cells were generated as described earlier. The cells were cultured in humidified atmosphere at +37 °C, 10% CO2 in high-glucose Dulbecco’s Modified Eagle’s Medium supplemented with 10% heat-inactivated fetal bovine serum, 2 mM L-glutamine, and 50 μg/mL gentamycin. The cells were lysed in a buffer containing 50 mM potassium phosphate, pH 7.2, 0.1 mM EDTA, 0.1% Triton X-100, 1 mM dithiothreitol (DTT), and Complete EDTA-free protease inhibitor (Roche Diagnostics, Basel, Switzerland). Aliquots of the lysate were taken for polyamine measurement, and the rest was centrifuged at 13,000 rpm for 20 min at +4 °C. The supernatant was used for enzyme assays and Western blotting.
Polyamines were measured with HPLC according to the published method. Acid-precipitated pellets were dissolved to 0.1 M NaOH, and the amount of DNA was measured using the PicoGreen reagent (Invitrogen) according to manufacturer’s instructions using dilutions of calf thymus DNA (Sigma-Aldrich) as standard curve. Protein concentrations were measured using Bio-Rad protein kit with dilutions of bovine serum albumin (Bio-Rad, Hercules, CA, USA) as standards. ODC activities were measured from the cytosolic fractions as described earlier. For immunoblotting of OAZ1, 20–50 μg of total protein was separated on a 15% SDS-polyacrylamide gel, transferred to a membrane (Immobilon FL, Millipore, Burlington, MA, USA), and immunoblotted with rabbit anti-OAZ1 antibody (a kind gift from Prof. Olli Jänne, University of Helsinki, Finland) and rabbit antiactin (Santa Cruz Biotechnology, cat no sc-1616, used at 1:1000 dilution in 5% nonfat dry milk/PBS-Tween). The secondary antibody used was goat antirabbit (Santa Cruz Biotechnology, Dallas, TX, USA, cat no sc-2004, used at 1:10,000 dilution).

[3] = system: spermidine/spermine-N^1-acetyltransferase (SSAT); set-up: method as in PMID 21639123; details: cited from earlier work
[4] = system: spermine synthase (SpmSy); set-up: method as in PMID 21639123; details: cited from earlier work
[5] = polyamine concentration 20 μM, without polyamine 65.5±0.6

In the case of CC(N)CCNCCCCN (stereo not drawn) [1-MeSpd], the Frameshifting activity ([1]; 0.25 mM in medium) is reported as “about the same as Spd”, the Frameshifting activity ([1]; 2.0 mM and 4.0 mM in medium) is reported as “weaker inducers of the frameshifting than Spd” and the Tm [2, 5] is reported as 73.0±0.4 °C. The Tm ([2]; polyamine concentration 50 μM) was 74.0±0.3 °C, the Tm ([2]; polyamine concentration 200 μM) was 80.2±0.6 °C and the “Intracellular Analogue” value (DU145 cells) was 170 ± 9.7 pmol/µg DNA. For the same compound, the “Intracellular N1-AcSpd” value (DU145 cells) was 7.1 ± 0.2 pmol/µg DNA, the “Intracellular Put” value (DU145 cells) was 9.5 ± 0.5 pmol/µg DNA and the “Intracellular Spd” value (DU145 cells) was 62.0 ± 3.9 pmol/µg DNA. For the same compound, the “Intracellular Spm” value (DU145 cells) was 74.0 ± 7.2 pmol/µg DNA, the “Spd + MeSpd” value (DU145 cells) was 232 pmol/µg DNA and the “Spd + Spm + MeSpd” value (DU145 cells) was 306 pmol/µg DNA. For the same compound, the Total polyamines (DU145 cells) was 323 pmol/µg DNA, the “Substrate of SSAT” value [3] was “not a substrate of SSAT” and the “Substrate of spermine synthase (SpmSy)” value [4] was “is a substrate of spermine synthase”.

For CC(CN)CNCCCCN (stereo not drawn) [2-MeSpd], the Frameshifting activity ([1]; all concentrations tested (0.25-4 mM)) was “substantially weaker inducer of +1 frameshift event than the other compounds”, the “Tm lower compared with Spd and the other analogues” value [2] was 2–3 °C and the Tm [2, 5] was 70.5±0.5 °C. For the same compound, the Tm ([2]; polyamine concentration 50 μM) was 73.4±0.4 °C, the Tm ([2]; polyamine concentration 200 μM) was 77.5±0.5 °C and the “Intracellular Analogue” value (DU145 cells) was 126 ± 14.5 pmol/µg DNA. The “Intracellular N1-AcSpd” value (DU145 cells) was 4.9 ± 0.3 pmol/µg DNA, the “Intracellular Put” value (DU145 cells) was 21.1 ± 0.7 pmol/µg DNA and the “Intracellular Spd” value (DU145 cells) was 70.2 ± 2.3 pmol/µg DNA. For the same compound, the “Intracellular Spm” value (DU145 cells) was 83.5 ± 6.8 pmol/µg DNA, the “Spd + MeSpd” value (DU145 cells) was 196 pmol/µg DNA and the “Spd + Spm + MeSpd” value (DU145 cells) was 279 pmol/µg DNA. For the same compound, the Total polyamines (DU145 cells) was 306 pmol/µg DNA, the “Substrate of SSAT” value [3] was “substrate of both SSAT and SpmSy” and the “Substrate of spermine synthase (SpmSy)” value [4] was “substrate of both SSAT and SpmSy”.

For CC(CCN)NCCCCN (stereo not drawn) [3-MeSpd], the Frameshifting activity ([1]; 2.0 mM and 4.0 mM in medium) was “weaker inducers of the frameshifting than Spd”, the Tm [2, 5] was 71.9±0.5 °C and the Tm ([2]; polyamine concentration 50 μM) was 75.2±0.4 °C. The Tm ([2]; polyamine concentration 200 μM) was 79.4±0.5 °C, the “Intracellular N1-AcSpd” value (DU145 cells) was 5.9 ± 1.1 pmol/µg DNA and the “Intracellular Put” value (DU145 cells) was 11.1 ± 0.2 pmol/µg DNA. The “Intracellular Spd” value (DU145 cells) was 65.3 ± 3.9 pmol/µg DNA, the “Intracellular Spm” value (DU145 cells) was 78.4 ± 5.8 pmol/µg DNA and the “Spd + MeSpd” value (DU145 cells) was 168 pmol/µg DNA. The Total polyamines (DU145 cells) was 264 pmol/µg DNA, the “Substrate of SSAT” value [3] was “not a substrate of either SSAT or SpmSy” and the “Substrate of spermine synthase (SpmSy)” value [4] was “not a substrate of either SSAT or SpmSy”.

In the case of NCCCCNCCCN [Spd, spermidine], the Tm [2, 5] is reported as 73.7±0.6 °C, the Tm ([2]; polyamine concentration 50 μM) is reported as 75.3±0.4 °C and the Tm ([2]; polyamine concentration 200 μM) is reported as 79.7±1.1 °C.
